In assay [1] the test system is Micrococcus luteus. In words: Induction of membrane permeability in Micrococcus luteus MTCC 2470 assessed as protein leakage at 1 to 2 times antibacterial MIC up to 12 hrs by Bradford protein assay. Format: functional.
The subject of assay [2] is Micrococcus luteus. In words: Bactericidal activity against Micrococcus luteus MTCC 2470 after 24 hrs by serial dilution method. It is filed as functional. Conditions: MTCC 2470, 24 h.
Assay [3] has as its system Micrococcus luteus. In words: Induction of intracellular ROS accumulation in Micrococcus luteus MTCC 2470 sessile biofilm cells at 0.5 to 4 ug/ml after 24 hrs by DCFH-DA staining-based assay. Format: functional, cell-based.
The test system of assay [4] is Staphylococcus aureus. In words: Antibiofilm activity against Staphylococcus aureus MLS16 MTCC 2940 after 24 hrs by crystal violet staining based assay. Format: functional. Conditions: MLS16 MTCC 2940, 24 h.
For assay [5], the system named is Pseudomonas aeruginosa. As to the kind of experiment: Antibacterial activity against Pseudomonas aeruginosa MTCC 2453 after 24 hrs by well diffusion method. Format: functional. Particulars: MTCC 2453, 24 h. A general note: A growth-free zone around the sample is the usual read-out of agar diffusion tests.
In assay [6] the test system is Staphylococcus aureus. In words: Ratio of MBC to MIC for Staphylococcus aureus MTCC 96. It is filed as functional.
The subject of assay [7] is Staphylococcus aureus. As to the kind of experiment: Bactericidal activity against Staphylococcus aureus MTCC 96 after 24 hrs by serial dilution method. Particulars: MTCC 96, 24 h. Format: functional.
In assay [8] the test system is Micrococcus luteus. In words: Antibiofilm activity against Micrococcus luteus MTCC 2470 after 24 hrs by crystal violet staining based assay. It is filed as functional. Particulars: MTCC 2470, 24 h.
Assay [9] deals with Micrococcus luteus. In words: Induction of ROS generation in Micrococcus luteus MTCC 2470 mature biofilms at 0.5 to 2 ug/ml after 24 hrs by DCFH-DA staining based fluorometric assay. It is filed as functional.
In assay [10] the test system is Bacillus subtilis. In words: Bactericidal activity against Bacillus subtilis MTCC 121 after 24 hrs by serial dilution method. Format: functional. Particulars: MTCC 121, 24 h.
Assay [11] deals with Staphylococcus aureus. As to the kind of experiment: Antibacterial activity against Staphylococcus aureus MTCC 96 after 24 hrs by well diffusion method. It is filed as functional. Particulars: MTCC 96, 24 h.
In assay [12] the test system is Bacillus subtilis. In words: Antibacterial activity against Bacillus subtilis MTCC 121 after 24 hrs by well diffusion method. It is filed as functional. Particulars: MTCC 121, 24 h.
Assay [13] concerns Staphylococcus aureus. As to the kind of experiment: Antibiofilm activity against Staphylococcus aureus MTCC 96 after 24 hrs by crystal violet staining based assay. It is filed as functional. Conditions: MTCC 96, 24 h.
Assay [14] has as its system Staphylococcus aureus. In words: Bactericidal activity against Staphylococcus aureus MLS16 MTCC 2940 after 24 hrs by serial dilution method. It is filed as functional. Conditions: MLS16 MTCC 2940, 24 h.
For assay [15], the system named is Micrococcus luteus. As to the kind of experiment: Ratio of MBC to MIC for Micrococcus luteus MTCC 2470. It is filed as functional.
Assay [16] deals with Micrococcus luteus. As to the kind of experiment: Induction of membrane permeability in Micrococcus luteus MTCC 2470 assessed as protein leakage at 1 to 2 times antibacterial MIC after 12 to 24 hrs by Bradford protein assay. It is filed as functional.
Assay [17] concerns Micrococcus luteus. In words: Antibacterial activity against Micrococcus luteus MTCC 2470 after 24 hrs by well diffusion method. Format: functional. Particulars: MTCC 2470, 24 h.
The subject of assay [18] is Escherichia coli. In words: Antibacterial activity against Escherichia coli MTCC 739 after 24 hrs by well diffusion method. Format: functional. Conditions: MTCC 739, 24 h.
The test system of assay [19] is Staphylococcus aureus. As to the kind of experiment: Antibacterial activity against Staphylococcus aureus MLS16 MTCC 2940 after 24 hrs by well diffusion method. It is filed as functional. Conditions: MLS16 MTCC 2940, 24 h.
In assay [20] the test system is Raoultella planticola. As to the kind of experiment: Antibacterial activity against Klebsiella planticola MTCC 530 after 24 hrs by well diffusion method. Format: functional. Particulars: MTCC 530, 24 h.
For assay [21], the system named is Bacillus subtilis. As to the kind of experiment: Antibiofilm activity against Bacillus subtilis MTCC 121 after 24 hrs by crystal violet staining based assay. Conditions: MTCC 121, 24 h. It is filed as functional.
For assay [22], the system named is Micrococcus luteus. In words: Induction of ROS generation in Micrococcus luteus MTCC 2470 mature biofilms at up to 4 ug/ml after 24 hrs by DCFH-DA staining based fluorometric assay. It is filed as functional.
Assay [23] relates to Staphylococcus aureus. In words: Ratio of MBC to MIC for Staphylococcus aureus MLS16 MTCC 2940. Format: functional.
Assay [24] deals with Bacillus subtilis. In words: Ratio of MBC to MIC for Bacillus subtilis MTCC 121. It is filed as functional.

In brackets after ≈: the same amount, converted by molar mass. Activity calls are given as the source filed them.

By MBC is commonly meant the smallest concentration meeting the test's criterion for killing. A high value points to weaker bactericidal potency. For orientation: IC50 means the concentration at which inhibition is half-maximal. Low values mean greater potency, high ones weaker potency. The term MIC denotes the lowest concentration found to suppress growth. A low value points to a more susceptible organism. As to `Cc1ccc(-c2nn(-c3ccccc3)cc2C2c3c(n(C)c(=O)n(C)c3=O)N=CN2c2ccc(Cl)cc2)cc1` (configuration not stated), in assay [1], the outcome was inactive. Further, the MBC worked out at 15.6 µg/mL (≈ 29 µM) in [2], 7.8 µg/mL (≈ 14.5 µM) in assay [7], 7.8 µg/mL (≈ 14.5 µM) in assay [10] and 31.2 µg/mL (≈ 58.1 µM) in [14]. Besides, the outcome in assay [3], in assay [9] and in [16] was Active. Besides, the IC50 in [4] was found to be 4.4 µg/mL (≈ 8.19 µM); in assay [8], 1.8 µg/mL (≈ 3.35 µM); in assay [13] it was 3.9 µg/mL (≈ 7.26 µM); in assay [21], 4.1 µg/mL (≈ 7.63 µM). Besides, the MIC was greater than 125 µg/mL in assay [5]; 7.8 µg/mL (≈ 14.5 µM) in [11]; 7.8 µg/mL (≈ 14.5 µM) in [12]; 3.9 µg/mL (≈ 7.26 µM) in assay [17]; greater than 125 µg/mL in [18]; 7.8 µg/mL (≈ 14.5 µM) in assay [19]. This molecule had an MIC in [20] greater than 125 µg/mL. Moreover, the Ratio in assay [6] and in assay [15] was 2 each time.

As for `O=C(O)c1cn(C2CC2)c2cc(N3CCNCC3)c(F)cc2c1=O` [CIPROFLOXACIN], the MBC was 1.9 µg/mL (≈ 5.73 µM) in [2], 1.9 µg/mL (≈ 5.73 µM) in [7], 0.9 µg/mL (≈ 2.72 µM) in assay [10] and 0.9 µg/mL (≈ 2.72 µM) in assay [14]. In [4], this molecule yielded an IC50 of 0.4 µg/mL (≈ 1.21 µM). Also, the MIC in [5], in [11], in [12], in assay [17], in [18] and in assay [19] was 0.9 µg/mL (≈ 2.72 µM) each time. The molecule also registered an MIC in [20] of 0.9 µg/mL (≈ 2.72 µM). Also, in assay [22], the result was Active.

On to `Cc1ccc(N2C=Nc3c(c(=O)n(C)c(=O)n3C)C2c2cn(-c3ccccc3)nc2-c2ccc([N+](=O)[O-])cc2)cc1` (configuration not stated), for which the MBC in [2] was determined as 15.6 µg/mL (≈ 28.5 µM); in assay [7] it was 31.2 µg/mL (≈ 57 µM); in [10], 31.2 µg/mL (≈ 57 µM); in assay [14] it was 15.6 µg/mL (≈ 28.5 µM). The IC50 in assay [4] is 9.5 µg/mL (≈ 17.3 µM); in assay [8] it was 10.1 µg/mL (≈ 18.4 µM); in [13], 12.6 µg/mL (≈ 23 µM); in [21], 18.3 µg/mL (≈ 33.4 µM). Besides, the MIC in [5] was greater than 125 µg/mL; in assay [11] it was 15.6 µg/mL (≈ 28.5 µM); in assay [12] it was 7.8 µg/mL (≈ 14.2 µM); in assay [17], 15.6 µg/mL (≈ 28.5 µM); in assay [18], greater than 125 µg/mL; in assay [19] it was 7.8 µg/mL (≈ 14.2 µM). The same molecule registered an MIC in assay [20] greater than 125 µg/mL. The Ratio in assay [6], in assay [15], in [23] and in assay [24] was 2 throughout.

Turning to `Cc1ccc(-c2nn(-c3ccccc3)cc2C2c3c(n(C)c(=O)n(C)c3=O)N=CN2c2ccc(C)cc2)cc1` (configuration not stated), the MBC was 15.6 µg/mL (≈ 30.2 µM) in assay [2], 15.6 µg/mL (≈ 30.2 µM) in assay [7], 31.2 µg/mL (≈ 60.4 µM) in assay [10] and 15.6 µg/mL (≈ 30.2 µM) in assay [14]. Further, the IC50 in [4] is 8.2 µg/mL (≈ 15.9 µM); in assay [8], 3.3 µg/mL (≈ 6.39 µM); in assay [13], 4.2 µg/mL (≈ 8.13 µM); in assay [21], 3.6 µg/mL (≈ 6.97 µM). For the same molecule, the MIC in [5] is greater than 125 µg/mL; in assay [11], 7.8 µg/mL (≈ 15.1 µM); in assay [12], 7.8 µg/mL (≈ 15.1 µM); in assay [17], 7.8 µg/mL (≈ 15.1 µM); in assay [18], greater than 125 µg/mL; in assay [19], 15.6 µg/mL (≈ 30.2 µM). In addition, the MIC in assay [20] was greater than 125 µg/mL. Besides, the Ratio in assay [6], in [15], in [23] and in assay [24] was 2 throughout.

Values taken from ChEMBL document CHEMBL3997821, “Design, synthesis and evaluation of novel pyrazolo-pyrimido[4,5-d]pyrimidine derivatives as potent antibacterial and biofilm inhibitors” (Bioorg Med Chem Lett, 2017).
